Results published in patent US9371320B2, “Heterocyclic compound” (TAKEDA PHARMACEUTICAL COMPANY LIMITED, priority 2012, dated 2016).
Like-named read-outs stand apart in the source and are kept apart here.

Tests used:
[1] = target: T1, JAK1 (Homo sapiens, UniProt P23458); assay: JAK1 enzyme inhibition test (LANCE method); format: biochemical; conditions: for inhibition at 1 µM: test compound 1 μM, read-out: Inhibitory rate (%) JAK1 1 μM; for inhibition at 10 µM: read-out: Inhibitory rate (%) JAK1 10 μM
T1 construct: purchased Invitrogen
T1 sequence (P23458 whole entry): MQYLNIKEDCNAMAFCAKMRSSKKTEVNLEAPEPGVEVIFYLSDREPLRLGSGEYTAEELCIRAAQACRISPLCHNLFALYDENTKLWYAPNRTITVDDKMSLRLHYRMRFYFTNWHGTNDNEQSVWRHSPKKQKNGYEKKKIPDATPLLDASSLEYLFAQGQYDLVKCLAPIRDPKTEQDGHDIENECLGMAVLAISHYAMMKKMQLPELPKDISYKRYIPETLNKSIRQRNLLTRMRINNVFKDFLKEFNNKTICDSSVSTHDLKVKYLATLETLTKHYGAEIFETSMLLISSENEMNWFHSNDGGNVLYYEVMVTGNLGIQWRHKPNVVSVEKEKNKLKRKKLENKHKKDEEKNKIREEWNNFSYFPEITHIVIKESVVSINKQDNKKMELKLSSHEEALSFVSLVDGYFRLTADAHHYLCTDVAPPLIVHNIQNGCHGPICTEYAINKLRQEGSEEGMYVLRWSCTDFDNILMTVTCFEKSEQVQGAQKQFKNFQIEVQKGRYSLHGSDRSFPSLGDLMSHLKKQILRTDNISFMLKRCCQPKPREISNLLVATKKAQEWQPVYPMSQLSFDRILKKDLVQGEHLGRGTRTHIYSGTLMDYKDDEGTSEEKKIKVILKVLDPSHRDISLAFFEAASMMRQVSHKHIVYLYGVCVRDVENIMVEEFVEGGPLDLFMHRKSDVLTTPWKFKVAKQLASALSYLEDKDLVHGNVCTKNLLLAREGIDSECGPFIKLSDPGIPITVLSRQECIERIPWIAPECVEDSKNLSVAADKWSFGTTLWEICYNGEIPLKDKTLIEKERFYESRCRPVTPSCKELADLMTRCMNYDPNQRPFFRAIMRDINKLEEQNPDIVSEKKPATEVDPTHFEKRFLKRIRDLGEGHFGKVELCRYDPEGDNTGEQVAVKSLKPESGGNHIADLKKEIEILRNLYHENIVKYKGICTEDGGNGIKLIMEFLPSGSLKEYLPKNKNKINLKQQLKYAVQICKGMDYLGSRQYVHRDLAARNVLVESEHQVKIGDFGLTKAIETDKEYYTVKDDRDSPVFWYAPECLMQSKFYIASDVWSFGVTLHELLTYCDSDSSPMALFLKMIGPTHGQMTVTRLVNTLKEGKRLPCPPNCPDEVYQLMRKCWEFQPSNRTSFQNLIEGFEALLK
Outline: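 Reactions ran 1 h at room temperature in HEPES pH 7.5/MgCl2 buffer, with ATP solution at 150 μM and JAK1 and ULight peptide solutions at 187.5 ng/mL and 300 nM. Reactions were stopped with EDTA, and phosphorylation was read by Eu antibody time-resolved fluorescence at 665 nm. Inhibition was scaled to a no-enzyme control as 100%.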

[2] = target: T2, Tyk2 (Homo sapiens, UniProt P29597); assay: Tyk2 enzyme inhibition test (LANCE method); format: biochemical; conditions: for inhibition at 1 µM: read-out: Inhibitory rate (%) Tyk2 1 μM; for inhibition at 10 µM: test compound 10 μM, read-out: Inhibitory rate (%) Tyk2 10 μM
T2 construct: purchased Invitrogen
T2 sequence (P29597 whole entry): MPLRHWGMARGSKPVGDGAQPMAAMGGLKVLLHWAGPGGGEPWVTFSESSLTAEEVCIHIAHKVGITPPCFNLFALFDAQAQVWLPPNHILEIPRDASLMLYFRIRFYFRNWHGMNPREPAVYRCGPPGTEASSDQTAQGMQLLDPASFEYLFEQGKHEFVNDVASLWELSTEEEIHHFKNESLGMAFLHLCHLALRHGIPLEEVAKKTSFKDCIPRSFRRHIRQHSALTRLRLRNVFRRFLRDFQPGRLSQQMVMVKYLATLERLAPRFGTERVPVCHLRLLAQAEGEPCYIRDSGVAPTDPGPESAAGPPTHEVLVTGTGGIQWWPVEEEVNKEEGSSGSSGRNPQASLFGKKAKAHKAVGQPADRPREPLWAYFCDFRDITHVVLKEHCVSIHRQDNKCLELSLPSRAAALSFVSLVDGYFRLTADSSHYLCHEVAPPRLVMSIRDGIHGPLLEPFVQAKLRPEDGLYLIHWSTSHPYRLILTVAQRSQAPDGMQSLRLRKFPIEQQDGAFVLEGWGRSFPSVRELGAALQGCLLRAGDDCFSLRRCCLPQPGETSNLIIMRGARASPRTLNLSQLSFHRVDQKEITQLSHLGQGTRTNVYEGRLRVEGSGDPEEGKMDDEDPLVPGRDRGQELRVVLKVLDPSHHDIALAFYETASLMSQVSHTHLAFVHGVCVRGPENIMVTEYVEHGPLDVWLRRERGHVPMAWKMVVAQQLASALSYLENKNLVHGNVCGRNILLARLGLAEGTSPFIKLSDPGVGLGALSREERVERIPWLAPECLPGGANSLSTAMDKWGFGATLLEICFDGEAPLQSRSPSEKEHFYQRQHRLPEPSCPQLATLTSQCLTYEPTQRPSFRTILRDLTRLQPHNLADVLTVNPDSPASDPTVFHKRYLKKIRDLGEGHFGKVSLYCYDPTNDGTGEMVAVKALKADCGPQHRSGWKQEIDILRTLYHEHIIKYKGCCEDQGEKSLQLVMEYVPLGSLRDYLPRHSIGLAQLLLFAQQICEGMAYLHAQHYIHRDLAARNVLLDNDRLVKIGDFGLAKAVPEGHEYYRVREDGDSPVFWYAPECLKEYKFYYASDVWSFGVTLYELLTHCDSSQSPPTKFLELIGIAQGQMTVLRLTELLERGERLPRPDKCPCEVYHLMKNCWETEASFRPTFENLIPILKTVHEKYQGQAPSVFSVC
Outline: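 LANCE TR-FRET read-out (ex 340/em 665 nm, 100 μs delay) of ULight-JAK1 phosphorylation, with no-enzyme wells as 100% inhibition. Reaction run 1 h at room temperature in pH 7.5 HEPES buffer; enzyme 375 ng/mL, substrate 300 nM and ATP 30 μM are solution concentrations before mixing.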

[3] = test compound 10 μM (Ex. 182-220), beside Tyk2 1 μM

Q: How did the inhibition at 1 µM [1] turn out when `O=c1[nH]cc(Cl)c2c1c(-c1ccc(N3CCS(=O)(=O)CC3)cc1)nn2-c1c(F)cccc1F` [Example 242, 7-chloro-1-(2,6-difluorophenyl)-3-(4-(1,1-dioxidothiomorpholin-4-yl)phenyl)-1,5-dihydro-4H-pyrazolo[4,3-c]pyridin-4-one] was run?
A: 27%

Q: And the inhibition at 1 µM ([2]; test compound 1 μM)?
A: 97%

Q: With `N#CCc1ccc(-c2cn(C3CCCC3)c3c(C#N)c[nH]c(=O)c23)cc1` [Example 96, 3-(4-(cyanomethyl)phenyl)-1-cyclopentyl-4-oxo-4,5-dihydro-1H-pyrrolo[3,2-c]pyridine-7-carbonitrile] as the molecule, how does the inhibition at 1 µM [1] read?
A: 94%

Q: And the inhibition at 1 µM ([2]; test compound 1 μM)?
A: 99%

Q: What does the source list for `NC(=O)c1cc(-c2nn([C@H]3CC[C@@H](O)CC3)c3cc[nH]c(=O)c23)cs1` [Example 184, 4-(1-(cis-4-hydroxycyclohexyl)-4-oxo-4,5-dihydro-1H-pyrazolo[4,3-c]pyridin-3-yl)thiophene-2-carboxamide]?
A: inhibition at 10 µM [1, 3]: 100%; inhibition at 1 µM ([2]; test compound 1 μM): 99%

Q: What does the source list for `NC(=O)c1cc(-c2nn(C3CCCC3)c3c(Cl)c[nH]c(=O)c23)cs1` [Example 296, 4-(7-chloro-1-cyclopentyl-4-oxo-4,5-dihydro-1H-pyrazolo[4,3-c]pyridin-3-yl)thiophene-2-carboxamide]?
A: inhibition at 1 µM [1]: 90%; inhibition at 1 µM ([2]; test compound 1 μM): 96%

Q: Which inhibition at 1 µM [1] does the source give for `C[C@H]1CCC[C@H]1n1cc(-c2ccc(S(N)(=O)=O)cc2)c2c(=O)[nH]ccc21` (relative stereo) [Example 71, 4-(1-(cis-2-methylcyclopentyl)-4-oxo-4,5-dihydro-1H-pyrrolo[3,2-c]pyridin-3-yl)benzenesulfonamide] here?
A: 99%

Q: And the inhibition at 1 µM ([2]; test compound 1 μM)?
A: 97%

Q: Which inhibition at 1 µM [1] does the source give for `N#CCOc1ccc(-c2nn(-c3c(F)cccc3F)c3c(Cl)c[nH]c(=O)c23)cc1` [Example 167, (4-(7-chloro-1-(2,6-difluorophenyl)-4-oxo-4,5-dihydro-1H-pyrazolo[4,3-c]pyridin-3-yl)phenoxy)acetonitrile] here?
A: 53%

Q: And the inhibition at 1 µM ([2]; test compound 1 μM)?
A: 97%

Q: How did the inhibition at 1 µM [1] turn out when `NC(=O)c1cc(-c2nn(C3CCC4(CC3)OCCO4)c3cc[nH]c(=O)c23)cs1` [Example 148, 4-(1-(1,4-dioxaspiro[4.5]dec-8-yl)-4-oxo-4,5-dihydro-1H-pyrazolo[4,3-c]pyridin-3-yl)thiophene-2-carboxamide] was run?
A: 99%

Q: And the inhibition at 1 µM ([2]; test compound 1 μM)?
A: 98%

Q: Which results are given for `CC(C)(C)n1nc(-c2ccc(S(N)(=O)=O)cc2)c2c(=O)[nH]ccc21` [Example 86, 4-(1-tert-butyl-4-oxo-4,5-dihydro-1H-pyrazolo[4,3-c]pyridin-3-yl)benzenesulfonamide]?
A: inhibition at 1 µM [1]: 94%; inhibition at 1 µM ([2]; test compound 1 μM): 85%

Q: What does the source list for `N#Cc1cc(F)c(-n2nc(-c3ccc(N4CCOCC4)cc3)c3c(=O)[nH]ccc32)c(F)c1` [Example 244, 3,5-difluoro-4-(3-(4-(morpholin-4-yl)phenyl)-4-oxo-4,5-dihydro-1H-pyrazolo[4,3-c]pyridin-1-yl)benzonitrile]?
A: inhibition at 1 µM [1]: 89%; inhibition at 1 µM ([2]; test compound 1 μM): 97%

Q: `O=C(O)c1cc(-c2nn(-c3c(F)cccc3F)c3cc[nH]c(=O)c23)cs1` [Example 37, 4-(1-(2,6-difluorophenyl)-4-oxo-4,5-dihydro-1H-pyrazolo[4,3-c]pyridin-3-yl)thiophene-2-carboxylic acid] was tested. Which inhibition at 1 µM [1] did it give?
A: 99%

Q: What about the inhibition at 1 µM ([2]; test compound 1 μM) of the same molecule?
A: 99%

Q: With `O=C1NCCN1c1ccc(-c2nn(-c3c(F)cccc3F)c3cc[nH]c(=O)c23)cc1` [Example 276, 1-(2,6-difluorophenyl)-3-(4-(2-oxoimidazolidin-1-yl)phenyl)-1,5-dihydro-4H-pyrazolo[4,3-c]pyridin-4-one] as the molecule, how does the inhibition at 1 µM [1] read?
A: 91%

Q: What about the inhibition at 1 µM ([2]; test compound 1 μM) of the same molecule?
A: 99%

Q: How did the inhibition at 1 µM [1] turn out when `NS(=O)(=O)c1ccc(-n2nc(C3CCCC3)c3cc[nH]c(=O)c32)cc1` [Example 75, 4-(3-cyclopentyl-7-oxo-6,7-dihydro-1H-pyrazolo[3,4-c]pyridin-1-yl)benzenesulfonamide] was run?
A: 93%

Q: And the inhibition at 1 µM ([2]; test compound 1 μM)?
A: 84%

Q: With `CC(C)(C)n1nc(-c2ccc(N3CCOCC3)cc2)c2c(=O)[nH]ccc21` [Example 243, 1-tert-butyl-3-(4-(morpholin-4-yl)phenyl)-1,5-dihydro-4H-pyrazolo[4,3-c]pyridin-4-one] as the molecule, how does the inhibition at 1 µM [1] read?
A: 52%

Q: And the inhibition at 1 µM ([2]; test compound 1 μM)?
A: 76%

Q: How did the inhibition at 1 µM [1] turn out when `CNC(=O)c1ccc(-c2nn(-c3c(F)cccc3F)c3cc[nH]c(=O)c23)cc1` [Example 180, 4-(1-(2,6-difluorophenyl)-4-oxo-4,5-dihydro-1H-pyrazolo[4,3-c]pyridin-3-yl)-N-methylbenzamide] was run?
A: 92%

Q: And the inhibition at 1 µM ([2]; test compound 1 μM)?
A: 101%

Q: `NC(=O)c1cc(-c2nn(-c3c(F)cccc3F)c3c(Br)c[nH]c(=O)c23)cs1` [Example 144, 4-(7-bromo-1-(2,6-difluorophenyl)-4-oxo-4,5-dihydro-1H-pyrazolo[4,3-c]pyridin-3-yl)thiophene-2-carboxamide] was tested. Which inhibition at 1 µM [1] did it give?
A: 99%

Q: What about the inhibition at 1 µM ([2]; test compound 1 μM) of the same molecule?
A: 95%

Q: With `O=C(c1cc(-c2nn(-c3c(F)cccc3F)c3c(Cl)c[nH]c(=O)c23)cs1)N1CCOCC1` [Example 192, 7-chloro-1-(2,6-difluorophenyl)-3-(5-(morpholin-4-ylcarbonyl)-3-thienyl)-1,5-dihydro-4H-pyrazolo[4,3-c]pyridin-4-one] as the molecule, how does the inhibition at 10 µM [1, 3] read?
A: 94%

Q: And the inhibition at 1 µM ([2]; test compound 1 μM)?
A: 99%

Q: Which inhibition at 1 µM [1] does the source give for `O=C1CCCN1c1ccc(-c2nn(-c3c(F)cccc3F)c3cc[nH]c(=O)c23)cc1` [Example 292, 1-(2,6-difluorophenyl)-3-(4-(2-oxopyrrolidin-1-yl)phenyl)-1,5-dihydro-4H-pyrazolo[4,3-c]pyridin-4-one] here?
A: 97%

Q: What about the inhibition at 1 µM ([2]; test compound 1 μM) of the same molecule?
A: 99%

Q: How did the inhibition at 10 µM ([1]; test compound 10 μM) turn out when `CNC(=O)c1ccc(F)c(-c2nn(-c3c(F)cccc3F)c3c(Cl)c[nH]c(=O)c23)c1` [Example 271, 3-(7-chloro-1-(2,6-difluorophenyl)-4-oxo-4,5-dihydro-1H-pyrazolo[4,3-c]pyridin-3-yl)-4-fluoro-N-methylbenzamide] was run?
A: -1%

Q: And the inhibition at 10 µM [2]?
A: 26%

Q: Which results are given for `CNC(=O)c1ccc(-c2nn(-c3c(F)cccc3F)c3c(Cl)c[nH]c(=O)c23)cc1F` [Example 216, 4-(7-chloro-1-(2,6-difluorophenyl)-4-oxo-4,5-dihydro-1H-pyrazolo[4,3-c]pyridin-3-yl)-2-fluoro-N-methylbenzamide]?
A: inhibition at 10 µM [1, 3]: 27%; inhibition at 1 µM ([2]; test compound 1 μM): 97%

Q: For `NS(=O)(=O)c1ccc(Cn2nc(-c3ccccc3)c3cc[nH]c(=O)c32)cc1` [Example 19, 4-((7-oxo-3-phenyl-6,7-dihydro-1H-pyrazolo[3,4-c]pyridin-1-yl)methyl)benzenesulfonamide], which inhibition at 10 µM ([1]; test compound 10 μM) is on record?
A: 44%

Q: What about the inhibition at 10 µM [2] of the same molecule?
A: 27%

Q: What does the source list for `O=C(NN1CCOCC1)c1cc(-c2nn(-c3c(F)cccc3F)c3c(Cl)c[nH]c(=O)c23)cs1` [Example 193, 4-(7-chloro-1-(2,6-difluorophenyl)-4-oxo-4,5-dihydro-1H-pyrazolo[4,3-c]pyridin-3-yl)-N-(morpholin-4-yl)thiophene-2-carboxamide]?
A: inhibition at 10 µM [1, 3]: 99%; inhibition at 1 µM ([2]; test compound 1 μM): 100%

Q: What does the source list for `C[C@H]1CCC[C@H]1n1cc(-c2csc(C(N)=O)c2)c2c(=O)[nH]ccc21` (relative stereo) [Example 85, 4-(1-(cis-2-methylcyclopentyl)-4-oxo-4,5-dihydro-1H-pyrrolo[3,2-c]pyridin-3-yl)thiophene-2-carboxamide]?
A: inhibition at 1 µM [1]: 90%; inhibition at 1 µM ([2]; test compound 1 μM): 100%

Q: How did the inhibition at 1 µM [1] turn out when `O=C(CO)N1CCN(c2ccc(-c3nn(-c4c(F)cccc4F)c4cc[nH]c(=O)c34)cc2)CC1` [Example 312, 1-(2,6-difluorophenyl)-3-(4-(4-glycoloylpiperazin-1-yl)phenyl)-1,5-dihydro-4H-pyrazolo[4,3-c]pyridin-4-one] was run?
A: 94%

Q: What about the inhibition at 1 µM ([2]; test compound 1 μM) of the same molecule?
A: 99%

Q: What does the source list for `COc1ccc(Cn2nc(-c3ccc(S(N)(=O)=O)cc3)c3c(=O)[nH]ccc32)cc1` [Example 94, 4-(1-(4-methoxybenzyl)-4-oxo-4,5-dihydro-1H-pyrazolo[4,3-c]pyridin-3-yl)benzenesulfonamide]?
A: inhibition at 1 µM [1]: 80%; inhibition at 1 µM ([2]; test compound 1 μM): 78%

Q: With `NC(=O)c1cc(-n2nc(C3CCCC3)c3c(Br)c[nH]c(=O)c32)cs1` [Example 67, 4-(4-bromo-3-cyclopentyl-7-oxo-6,7-dihydro-1H-pyrazolo[3,4-c]pyridin-1-yl)thiophene-2-carboxamide] as the molecule, how does the inhibition at 1 µM [1] read?
A: 55%

Q: And the inhibition at 1 µM ([2]; test compound 1 μM)?
A: 91%

Q: For `CC(C)(C)n1nc(Nc2ccccc2)c2c(=O)[nH]ccc21` [Example 250, 3-anilino-1-tert-butyl-1,5-dihydro-4H-pyrazolo[4,3-c]pyridin-4-one], which inhibition at 1 µM [1] is on record?
A: 93%

Q: What about the inhibition at 1 µM ([2]; test compound 1 μM) of the same molecule?
A: 69%

Q: With `O=c1[nH]ccc2c1c(-c1ccc(N3CCOCC3)cc1)nn2C1CCC(F)(F)CC1` [Example 266, 1-(4,4-difluorocyclohexyl)-3-(4-(morpholin-4-yl)phenyl)-1,5-dihydro-4H-pyrazolo[4,3-c]pyridin-4-one] as the molecule, how does the inhibition at 1 µM [1] read?
A: 85%

Q: What about the inhibition at 1 µM ([2]; test compound 1 μM) of the same molecule?
A: 91%

Q: How did the “Inhibitory rate (%) JAK1 10 μM” value [1, 3] turn out when `CC1(O)CCC(n2nc(-c3csc(C(N)=O)c3)c3c(=O)[nH]ccc32)CC1` (stereo not shown) [Example 199, 4-(1-(4-hydroxy-4-methylcyclohexyl)-4-oxo-4,5-dihydro-1H-pyrazolo[4,3-c]pyridin-3-yl)thiophene-2-carboxamide] was run?
A: 99%

Q: And the “Inhibitory rate (%) Tyk2 1 μM” value ([2]; test compound 1 μM)?
A: 100%

Q: For `CNC(=O)c1cc(F)cc(-c2nn(-c3c(F)cccc3F)c3cc[nH]c(=O)c23)c1` [Example 274, 3-(1-(2,6-difluorophenyl)-4-oxo-4,5-dihydro-1H-pyrazolo[4,3-c]pyridin-3-yl)-5-fluoro-N-methylbenzamide], which inhibition at 1 µM [1] is on record?
A: 34%

Q: What about the inhibition at 1 µM ([2]; test compound 1 μM) of the same molecule?
A: 77%
